Reference: patent US8476253B2, “Amide derivative” (Daiichi Sankyo Company, Limited, priority 2009, dated 2013)
Counter-ions that a name gives are not always drawn. Like-named read-outs stand apart in the source and are kept apart here.

How the values were obtained:
[1] = target: T1, substance P receptor (Cavia porcellus, UniProt P30547); experiment: Test for binding to guinea-pig substance P receptor (crude lung membrane sample); conditions: crude guinea-pig lung membrane sample, [3H]substance P; Ki from IC50 and Kd; read-out: Ki
T1 construct: A preparation of a crude lung membrane sample was prepared; from tissue; host or cells: guinea-pig lung (crude membrane sample)
T1 sequence (P30547 whole entry): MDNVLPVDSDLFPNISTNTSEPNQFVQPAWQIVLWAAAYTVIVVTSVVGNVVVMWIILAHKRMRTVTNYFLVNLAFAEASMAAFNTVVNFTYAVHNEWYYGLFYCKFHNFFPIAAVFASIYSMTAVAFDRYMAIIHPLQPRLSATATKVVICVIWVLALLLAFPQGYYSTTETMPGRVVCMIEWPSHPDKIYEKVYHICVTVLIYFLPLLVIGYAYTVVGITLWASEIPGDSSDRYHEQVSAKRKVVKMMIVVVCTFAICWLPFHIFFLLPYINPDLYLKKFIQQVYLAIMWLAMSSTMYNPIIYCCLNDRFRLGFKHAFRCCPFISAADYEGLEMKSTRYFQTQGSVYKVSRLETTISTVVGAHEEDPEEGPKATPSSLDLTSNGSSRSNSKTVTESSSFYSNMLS
Protocol: A preparation of a crude lung membrane sample was prepared, and a test for binding of a test substance to the sample was performed according to the method described in EP0336230A2.
The binding effect of the test substance to a substance P receptor was calculated as an affinity (Ki) of the test substance for the substance P receptor from a 50% binding concentration (IC50) and an affinity (Kd) of [^3H]substance P for the substance P receptor.

[2] = target: T2, human M3 receptor (Homo sapiens, UniProt P20309); experiment: Test for binding to human M3 receptor
T2 construct: expressed in transfected cells; host or cells: CHO cells
T2 sequence (P20309 whole entry): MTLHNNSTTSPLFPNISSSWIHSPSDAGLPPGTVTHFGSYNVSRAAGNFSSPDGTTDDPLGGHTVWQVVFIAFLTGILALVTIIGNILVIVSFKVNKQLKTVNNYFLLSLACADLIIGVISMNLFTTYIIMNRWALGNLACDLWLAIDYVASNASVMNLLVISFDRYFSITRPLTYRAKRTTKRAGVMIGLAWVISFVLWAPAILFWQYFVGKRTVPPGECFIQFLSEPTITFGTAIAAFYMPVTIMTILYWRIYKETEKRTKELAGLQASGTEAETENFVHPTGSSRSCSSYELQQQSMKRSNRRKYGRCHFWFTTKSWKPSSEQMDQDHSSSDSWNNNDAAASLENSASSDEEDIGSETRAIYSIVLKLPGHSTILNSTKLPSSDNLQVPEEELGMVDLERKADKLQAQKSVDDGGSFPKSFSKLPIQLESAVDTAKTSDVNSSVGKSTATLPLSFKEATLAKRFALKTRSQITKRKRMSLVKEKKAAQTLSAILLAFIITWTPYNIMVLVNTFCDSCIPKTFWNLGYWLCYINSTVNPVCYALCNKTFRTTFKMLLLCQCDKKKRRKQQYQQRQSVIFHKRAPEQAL
Protocol: A solution of cryopreserved CHO cells expressing human M3 receptor was diluted with a buffer (50 mM tris-hydrochloride containing 0.5 mM of EDTA, pH 7.4) to obtain 5.0×10^5 of cells/mL and used as a crude membrane sample.
[N-methyl-^3H]-(−)-Scopolamine methyl chloride (GE Healthcare Japan Corporation) was diluted with 50 mM of tris-hydrochloride containing 0.5 mM of EDTA (pH 7.4), a test substance and 250 μL of the crude membrane sample solution were added to 250 μL of the mixture, and the mixture was incubated at room temperature for 60 minutes. […] The glass fiber filter paper was pretreated with a 0.1% polyethylenimine solution for 4 hours or longer to minimize non-specific binding. The filter collecting membrane components was transferred to a small-size plastic vial containing 3 mL of Pico-Fluor, and the radioactivity was measured with a liquid scintillation counter (Tri-Carb 2900TR or 2300TR; Perkin Elmer).
The effect of binding to the M3 receptor was calculated as the affinity (Ki) of the test substance for the M3 receptor from a 50% binding dose (IC50) and the affinity (Kd) of [N-methyl-^3H]-(−)-Scopolamine methyl chloride for the M3 receptor.

[3] = target: T3, human NK2 receptor (Homo sapiens, UniProt P21452); experiment: Test for binding to human NK2 receptor
T3 construct: expressed in transfected cells; host or cells: COS cells
T3 sequence (P21452 1-398): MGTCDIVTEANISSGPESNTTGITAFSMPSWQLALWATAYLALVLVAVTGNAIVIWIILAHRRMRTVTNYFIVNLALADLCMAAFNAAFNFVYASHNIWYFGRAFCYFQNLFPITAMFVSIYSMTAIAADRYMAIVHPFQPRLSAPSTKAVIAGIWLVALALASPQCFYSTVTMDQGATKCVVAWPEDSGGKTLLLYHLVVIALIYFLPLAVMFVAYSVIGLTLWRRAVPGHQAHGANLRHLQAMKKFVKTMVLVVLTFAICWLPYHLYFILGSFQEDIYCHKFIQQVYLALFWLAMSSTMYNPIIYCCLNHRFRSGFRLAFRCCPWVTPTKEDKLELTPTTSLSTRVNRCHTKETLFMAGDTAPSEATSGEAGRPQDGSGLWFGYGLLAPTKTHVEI
Protocol: A solution of cryopreserved COS cells expressing human NK2 receptor was diluted with a buffer (50 mM tris-hydrochloride containing 0.04% of bovine serum albumin [BSA], pH 7.4) to obtain a concentration of 5.0×10^5 cells/mL and used as a crude membrane sample.
[^3H]SR 48968 (GE Healthcare Japan Corporation) was diluted with a mixture of 50 mM of tris-hydrochloride (pH 7.4), 6 mM of manganese chloride tetrahydrate, 800 μg/mL of BSA, 8 μg/mL of chymostatin, 8 μg/mL of leupeptin, 80 μg/mL of bacitracin, and 20 μg/mL of phosphoramidon. […] After the reaction, the membrane components were collected on a GF/B glass fiber filter paper (Whatman; Biomedical Research and Development Laboratories, Inc.) with an automated filtration system (Brandel; Biomedical Research and Development Laboratories, Inc.). The glass fiber filter paper was pretreated with a 0.1% polyethylenimine solution for 4 hours or longer to minimize non-specific binding. The filter collecting the membrane components was transferred to a small-size plastic vial containing 3 mL of Pico-Fluor, and the radioactivity was measured with a liquid scintillation counter (Tri-Carb 2900TR or 2300TR; Perkin Elmer).
The effect of binding to the NK2 receptor was calculated as the affinity (Ki) of the test substance for the NK2 receptor from a 50% binding dose (IC50) and the affinity (Kd) of [^3H]SR 48968 for the NK2 receptor.

[4] = CHO cells expressing human M3 receptor, [N-methyl-3H]-(-)-Scopolamine methyl chloride 0.5 nM, Ki from IC50 and Kd, read-out: Ki
[5] = COS cells expressing human NK2 receptor, [3H]SR 48968 1 nM, Ki from IC50 and Kd, read-out: Ki

| SMILES | Ki [1] [nM] | Ki [2, 4] [nM] | Ki [3, 5] [nM] | Ki [2] [nM] | Ki [3] [nM] |
| --- | --- | --- | --- | --- | --- |
| CN(CCCCCC(=O)N(C)CCN1CCC(OC(=O)Nc2ccccc2-c2ccccc2)CC1)Cc1ccc(C(=O)N(C)CCCN(C)C(=O)CO[C@H]2Cc3ccccc3C23CCN(CC[C@@]2(c4ccc(F)cc4)CN(C(=O)c4cc(C(F)(F)F)cc(C(F)(F)F)c4)CO2)CC3)nc1 [Example 5, 1-{2-[{6-[({6-[{3-[({[(2S)-1′-{2-[(5R)-3-[3,5-Bis(trifluoromethyl)benzoyl]-5-(4-fluorophenyl)-1,3-oxazolidin-5-yl]ethyl}-2,3-dihydrospiro[indene-1,4′-piperidin]-2-yl]oxy}acetyl)(methyl)amino]propyl}(methyl)carbamoyl]pyridin-3-yl}methyl)(methyl)amino]hexanoyl}(methyl)amino]ethyl}piperidin-4-yl biphenyl-2-ylcarbamate] | 1.5 | 0.69 | 0.48 | – | – |
| CN(CCN1CCC(OC(=O)Nc2ccccc2-c2ccccc2)CC1)C(=O)CCCCCNCc1ccc(C(=O)N(C)CCCN(C)C(=O)CO[C@H]2Cc3ccccc3C23CCN(CC[C@@]2(c4ccc(F)cc4)CN(C(=O)c4cc(C(F)(F)F)cc(C(F)(F)F)c4)CO2)CC3)nc1 [Example 7, 1-{2-[{6-[({6-[{3-[({[(2S)-1′-{2-[(5R)-3-[3,5-Bis(trifluoromethyl)benzoyl]-5-(4-fluorophenyl)-1,3-oxazolidin-5-yl]ethyl}-2,3-dihydrospiro[indene-1,4′-piperidin]-2-yl]oxy}acetyl)(methy)amino]propyl}(methyl)carbamoyl]pyridin-3-yl}methyl)amino]hexanoyl}(methyl)amino]ethyl}piperidin-4-yl biphenyl-2-ylcarbamate] | 0.57 | 0.9 | 0.17 | – | – |
| CN(CCN1CCC(OC(=O)Nc2ccccc2-c2ccccc2)CC1)C(=O)CCCCCN(C)c1ccc(C(=O)N(C)CCCN(C)C(=O)CO[C@H]2Cc3ccccc3C23CCN(CC[C@@]2(c4ccc(F)cc4)CN(C(=O)c4cc(C(F)(F)F)cc(C(F)(F)F)c4)CO2)CC3)s1 [Example 8, 1-{2-[{6-[{5-[{3-[({[(2S)-1′-{2-[(5R)-3-[3,5-Bis(trifluoromethyl)benzoyl]-5-(4-fluorophenyl)-1,3-oxazolidin-5-yl]ethyl}-2,3-dihydrospiro[indene-1,4′-piperidin]-2-yl]oxy}acetyl)(methyl)amino]propyl}(methyl)carbamoyl]-2-thienyl}(methyl)amino]hexanoyl}(methyl)amino]ethyl}piperidin-4-yl biphenyl-2-ylcarbamate] | 2.6 | 1.9 | 0.38 | – | – |
| CN(CCN1CCC(OC(=O)Nc2ccccc2-c2ccccc2)CC1)C(=O)CCCCCNc1ccc(C(=O)N(C)CCCN(C)C(=O)CO[C@H]2Cc3ccccc3C23CCN(CC[C@@]2(c4ccc(F)cc4)CN(C(=O)c4cc(C(F)(F)F)cc(C(F)(F)F)c4)CO2)CC3)cc1F [Example 13, 1-(2-{[6-({4-[{3-[({[(2S)-1′-{2-[(5R)-3-[3,5-Bis(trifluoromethyl)benzoyl]-5-(4-fluorophenyl)-1,3-oxazolidin-5-yl]ethyl}-2,3-dihydrospiro[indene-1,4′-piperidin]-2-yl]oxy}acetyl)(methyl)amino]propyl}(methyl)carbamoyl]-2-fluorophenyl}amino)hexanoyl](methyl)amino}ethyl)piperidin-4-yl biphenyl-2-ylcarbamate trihydrochloride] | 2.6 | – | – | 1.2 | 0.65 |
| CN(CCN1CCC(OC(=O)Nc2ccccc2-c2ccccc2)CC1)C(=O)CCCCCCNc1ccc(C(=O)N(C)CCCN(C)C(=O)CO[C@H]2Cc3ccccc3C23CCN(CC[C@@]2(c4ccc(F)cc4)CN(C(=O)c4cc(C(F)(F)F)cc(C(F)(F)F)c4)CO2)CC3)cc1.Cl.Cl.Cl [Example 39, 1-(2-{[7-({4-[{3-[({[(2S)-1′-{2-[(5R)-3-[3,5-Bis(trifluoromethyl)benzoyl]-5-(4-fluorophenyl)-1,3-oxazolidin-5-yl]ethyl}-2,3-dihydrospiro[indene-1,4′-piperidin]-2-yl]oxy}acetyl)(methyl)amino]propyl}methyl)carbamoyl]phenyl}amino)heptanoyl](methyl)amino}ethyl)piperidin-4-yl biphenyl-2-ylcarbamate trihydrochloride] | 1.2 | 1.4 | 0.82 | – | – |
| CN(CCCCCC(=O)N(C)CCN1CCC(OC(=O)Nc2ccccc2-c2ccccc2)CC1)Cc1cccc(C(=O)N(C)CCCN(C)C(=O)CO[C@H]2Cc3ccccc3C23CCN(CC[C@@]2(c4ccc(F)cc4)CN(C(=O)c4cc(C(F)(F)F)cc(C(F)(F)F)c4)CO2)CC3)c1 [Example 41, 1-{2-[{6-[{3-[{3-[({[(2S)-1′-{2-[(5R)-3-[3,5-Bis(trifluoromethyl)benzoyl]-5-(4-fluorophenyl)-1,3-oxazolidin-5-yl]ethyl}-2,3-dihydrospiro[indene-1,4′-piperidin]-2-yl]oxy}acetyl)(methyl)amino]propyl}(methyl)carbamoyl]benzyl}(methyl)amino]hexanoyl}(methyl)amino]ethyl}piperidin-4-yl biphenyl-2-ylcarbamate trihydrochloride] | 0.96 | – | – | 1.4 | 0.26 |
| CN(CCN1CCC(OC(=O)Nc2ccccc2-c2ccccc2)CC1)C(=O)CCCC1CCN(c2ccc(C(=O)N(C)CCCN(C)C(=O)CO[C@H]3Cc4ccccc4C34CCN(CC[C@@]3(c5ccc(F)cc5)CN(C(=O)c5cc(C(F)(F)F)cc(C(F)(F)F)c5)CO3)CC4)cc2)CC1 [Example 66, 1-(2-{[4-(1-{4-[{3-[({[(2S)-1′-{2-[(5R)-3-[3,5-Bis(trifluoromethyl)benzoyl]-5-(4-fluorophenyl)-1,3-oxazolidin-5-yl]ethyl}-2,3-dihydrospiro[indene-1,4′-piperidin]-2-yl]oxy}acetyl)(methyl)amino]propyl}methyl)carbamoyl]phenyl}piperidin-4-yl)butanoyl](methyl)amino}ethyl)piperidin-4-yl biphenyl-2-ylcarbamate trihydrochloride] | 2.1 | 1.5 | 0.86 | – | – |
| CN(CCN1CCC(OC(=O)Nc2ccccc2-c2ccccc2)CC1)C(=O)CCCCCNCc1ccc(C(=O)N(C)CCCN(C)C(=O)CO[C@H]2Cc3ccccc3C23CCN(CC[C@@]2(c4ccc(F)cc4)CN(C(=O)c4cc(C(F)(F)F)cc(C(F)(F)F)c4)CO2)CC3)cc1 [Example 75, 1-(2-{[6-({4-[{3-[({[(2S)-1-{2-[(5R)-3-[3,5-Bis(trifluoromethyl)benzoyl]-5-(4-fluorophenyl)-1,3-oxazolidin-5-yl]ethyl}-2,3-dihydrospiro[indene-1,4′-piperidin]-2-yl]oxy}acetyl)(methyl)amino]propyl}(methyl)carbamoyl]benzyl}amino)hexanoyl](methyl)amino}ethyl)piperidin-4-yl biphenyl-2-ylcarbamate] | 1 | 0.52 | 0.25 | – | – |
